± gives the expanded uncertainty stated by the source.
Assays:
[1] = 101 kPa, Liquid, Vibrating tube method
[2] = xn = mol fraction of the nth substance listed; details: 283.15 K; 101 kPa; Liquid; Vibrating tube method; x2 = 0

Compound	mass density ([1]; 283.15 K) [kg/m3]	mass density ([1]; 288.15 K) [kg/m3]	mass density ([1]; 293.15 K) [kg/m3]	mass density ([1]; 298.15 K) [kg/m3]	mass density ([1]; 303.15 K) [kg/m3]	mass density [2] [kg/m3]
CCCOCC(C)O (configuration not stated) [1-propoxy-2-propanol]	894.462 ± 0.23	889.963 ± 0.23	885.456 ± 0.23	880.837 ± 0.23	876.279 ± 0.23	–
O [water]	999.699 ± 0.05	–	–	–	–	–
O [water] + CCCOCC(C)O	–	–	–	–	–	999.699 ± 0.05

Source: the NIST ThermoML archive (doi:10.1016/j.jct.2009.06.016)
